Where “and” joins values, the source holds several entries; their conditions need not be identical. Equal values may be shown once.

This passage reports ΔTm results from ChEMBL document CHEMBL5308504, “Tm Shift (DSF) assay results for EUbOPEN Chemogenomics Library” (2023).

Assay [1] concerns the target Fibroblast growth factor receptor 3 (Homo sapiens) (UniProt P22607). The note with it: Compound concentration 20.0 uM, Protein concentration 2.0 uM, Result type QC Liability.
Description: Thermal Shift Assay. Domain: start/stop: P449-E759
The next assay addresses T1, Peregrin (Homo sapiens) (UniProt P55201).
T1 sequence (whole entry): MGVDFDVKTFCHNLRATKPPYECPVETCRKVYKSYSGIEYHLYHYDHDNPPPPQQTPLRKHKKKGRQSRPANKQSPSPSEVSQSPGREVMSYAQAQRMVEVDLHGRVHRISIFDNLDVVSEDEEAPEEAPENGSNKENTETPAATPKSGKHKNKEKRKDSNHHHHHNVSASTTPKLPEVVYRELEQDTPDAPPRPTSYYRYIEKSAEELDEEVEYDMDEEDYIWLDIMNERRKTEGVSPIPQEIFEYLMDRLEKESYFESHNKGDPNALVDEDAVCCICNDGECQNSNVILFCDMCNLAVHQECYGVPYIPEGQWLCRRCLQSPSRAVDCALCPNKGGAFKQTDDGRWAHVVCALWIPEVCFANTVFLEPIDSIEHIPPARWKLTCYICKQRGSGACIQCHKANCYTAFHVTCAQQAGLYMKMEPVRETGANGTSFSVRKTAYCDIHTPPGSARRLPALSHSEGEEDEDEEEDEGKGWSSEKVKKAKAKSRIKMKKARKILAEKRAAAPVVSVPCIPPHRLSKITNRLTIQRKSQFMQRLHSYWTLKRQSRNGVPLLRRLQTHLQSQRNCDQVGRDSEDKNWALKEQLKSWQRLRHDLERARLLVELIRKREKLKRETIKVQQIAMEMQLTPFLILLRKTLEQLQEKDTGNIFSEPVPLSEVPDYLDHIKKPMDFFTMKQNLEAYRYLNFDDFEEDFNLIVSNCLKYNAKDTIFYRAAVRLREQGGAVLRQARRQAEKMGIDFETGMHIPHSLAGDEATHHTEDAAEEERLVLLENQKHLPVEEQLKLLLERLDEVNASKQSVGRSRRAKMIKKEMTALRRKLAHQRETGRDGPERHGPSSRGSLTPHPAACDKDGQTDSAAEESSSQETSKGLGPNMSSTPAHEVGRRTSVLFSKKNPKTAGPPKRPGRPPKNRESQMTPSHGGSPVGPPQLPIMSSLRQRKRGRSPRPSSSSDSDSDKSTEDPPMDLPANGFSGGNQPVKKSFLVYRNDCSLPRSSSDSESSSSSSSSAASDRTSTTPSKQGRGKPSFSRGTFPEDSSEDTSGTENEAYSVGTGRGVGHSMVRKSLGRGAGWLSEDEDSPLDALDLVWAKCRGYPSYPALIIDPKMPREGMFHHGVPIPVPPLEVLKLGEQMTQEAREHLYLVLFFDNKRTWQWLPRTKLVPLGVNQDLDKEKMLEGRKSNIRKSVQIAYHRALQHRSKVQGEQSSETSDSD
The following applies: Compound concentration 20.0 uM, Protein concentration 2.0 uM, Result type QC Liability.

Fibroblast growth factor receptor 3 (Homo sapiens), sequence (P22607 23-806 limits assumed): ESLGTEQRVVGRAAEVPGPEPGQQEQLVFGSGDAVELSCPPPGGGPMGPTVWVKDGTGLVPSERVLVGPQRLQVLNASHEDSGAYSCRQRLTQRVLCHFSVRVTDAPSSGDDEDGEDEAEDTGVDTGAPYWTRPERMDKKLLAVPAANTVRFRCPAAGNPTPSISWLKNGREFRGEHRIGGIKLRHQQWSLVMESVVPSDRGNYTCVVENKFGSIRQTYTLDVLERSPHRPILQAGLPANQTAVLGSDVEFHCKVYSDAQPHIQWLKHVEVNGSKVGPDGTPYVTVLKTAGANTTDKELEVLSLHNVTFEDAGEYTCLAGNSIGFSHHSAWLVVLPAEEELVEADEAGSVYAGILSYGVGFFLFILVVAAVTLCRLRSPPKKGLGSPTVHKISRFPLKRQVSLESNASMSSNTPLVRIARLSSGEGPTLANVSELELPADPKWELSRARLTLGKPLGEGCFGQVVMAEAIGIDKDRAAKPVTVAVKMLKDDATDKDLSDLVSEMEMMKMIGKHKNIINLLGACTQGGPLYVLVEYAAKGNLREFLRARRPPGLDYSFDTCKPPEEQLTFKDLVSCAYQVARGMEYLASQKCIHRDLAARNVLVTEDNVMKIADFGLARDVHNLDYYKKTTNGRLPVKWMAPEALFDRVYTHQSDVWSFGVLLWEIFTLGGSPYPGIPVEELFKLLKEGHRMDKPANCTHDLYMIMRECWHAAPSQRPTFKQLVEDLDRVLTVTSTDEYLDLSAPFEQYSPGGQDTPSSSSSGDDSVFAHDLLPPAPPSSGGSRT

By ΔTm is commonly meant the shift of the melting midpoint relative to a reference. On to `O=C(O)CCCCN(CCc1cc(F)ccc1OCc1ccc(-c2ccc(C(F)(F)F)cc2)cc1)Cc1ccc(C(=O)O)cc1`, for which the shift in melting temperature (ΔTm) in assay [1] is -0.36 °C; on Peregrin (Homo sapiens), -3.03 °C.
The corresponding values for `NC(=O)c1sc2nc(N3CCC(NC[C@H](O)c4ccccn4)CC3)cc(C(F)(F)F)c2c1N` are 1.99 °C and -0.86 °C.
Regarding `CS(=O)(=O)CCNCc1ccc(-c2ccc3ncnc(Nc4ccc(OCc5cccc(F)c5)c(Cl)c4)c3c2)o1`, the ΔTm in assay [1] was 0.79 °C; at Peregrin (Homo sapiens), -1.41 °C.
`CNC(=O)c1cccc(-c2ccc3c(N4CCOC[C@@H]4C)nc(N4CCOC[C@@H]4C)nc3n2)c1`: the ΔTm in assay [1] was 0.5 °C; on Peregrin (Homo sapiens), -1.11 °C.
The corresponding values for `CN(C)[C@H]1CCN(c2cc(C(F)(F)F)c(C#N)c(Nc3cccc(CCC(=O)O)c3)n2)C1` are 1 °C and -2.19 °C.
The corresponding values for `CN(C)C(=O)Cn1cc(-c2ccc(-c3nnc4ccccn34)cc2)cn1` are 0.47 °C and -2.13 °C.
Turning to `CN1CC(=O)N(C)c2cnc(Nc3ccc(NC(=O)Nc4cccc(C(=O)O)c4)cc3)nc21`, the ΔTm is 1.19 °C in assay [1] and -0.81 °C on Peregrin (Homo sapiens).
As for `COc1cc2ncnc(Nc3cccc(O)c3)c2cc1OC`, the results for the ΔTm (in assay [1]; at Peregrin (Homo sapiens)) were 2.74 °C and -1.59 °C, respectively.
As for `N[C@@H](CC(=O)O)Cn1nnc(-c2ccc(Oc3ncc(Cl)cc3F)cc2)n1`, the shift in melting temperature (ΔTm) in assay [1] was 0.43 °C; on Peregrin (Homo sapiens), -3.09 °C.
As for `CC(C)c1cnc(NC(=O)Cc2ccccc2)s1`, the results for the ΔTm (in assay [1]; on Peregrin (Homo sapiens)) were 0.87 °C and 0.11 °C, respectively.
The corresponding values for `Cc1cn([C@@H](C)CC#N)c(=O)c2cc(Cn3nc(C(F)F)cc3Cl)nn12` are 0.93 °C and -1.08 °C.
With `Cc1cc(NC(=O)c2cccc(NC(=O)/C=C/CN(C)C)c2)ccc1Nc1nccc(-c2cccnc2)n1`, the ΔTm in assay [1] was 1.04 °C; at Peregrin (Homo sapiens), -1.22 °C.
For the molecule `Cn1c(C2(NC(=O)c3ccc4c(C5CCCC5)c(-c5ncc(Br)cn5)n(C)c4c3)CCC2)nc2ccc(/C=C/C(=O)O)cc21`, the ΔTm is -0.02 °C and -0.48 °C in assay [1]; -4.81 °C and -4.1 °C on Peregrin (Homo sapiens).
Regarding `CN(C)[C@H]1C[C@H](n2cnc(-c3ccc(F)cn3)c2-c2ccnc3[nH]ccc23)C1`, the shift in melting temperature (ΔTm) in assay [1] is 0.61 °C; at Peregrin (Homo sapiens), -0.35 °C.
As to `Cc1c(CCC(=O)O)cccc1NC(=O)[C@@H](c1ccc(-c2cncc(Cl)c2)c(F)c1)C1CCCC1`, the ΔTm in assay [1] is 0.03 °C; at Peregrin (Homo sapiens), -4.03 °C.
The corresponding values for `O=C(Nc1cccc(Nc2nccc(Nc3cccc(C(F)(F)F)c3)n2)c1)C1CC1` are 3.3 °C and 0.79 °C.
The corresponding values for `Nc1ncnc2c1c(COc1cccc(Cl)c1)nn2C1CCOCC1` are 1.63 °C and -1.86 °C.
In the case of `CCn1c(CNC(=O)c2nc(Cl)cnc2N)[n+](CC)c2ccc(C(=O)N(C)CCN(C)C)cc21`, the shift in melting temperature (ΔTm) in assay [1] is 0.5 °C; on Peregrin (Homo sapiens), -1.87 °C.
The corresponding values for `CCc1ccc(N(CC(C)C)S(=O)(=O)c2ccc(OCC3CCOCC3)c(CO)c2)cc1` are 0.5 °C and -0.2 °C.
For the molecule `O=C(Nc1ccc(-n2nc(-c3cccnc3)cc2C(F)(F)F)cn1)c1ccc(-c2ccccc2)c(F)c1`, the results for the ΔTm (in assay [1]; at Peregrin (Homo sapiens)) were 0.42 °C and -2.22 °C, respectively.
`FC(F)c1cncc(-c2ccc3ncc4nnc(C5=CCCOCC5)n4c3c2)c1`: the ΔTm in assay [1] was 0.51 °C; at Peregrin (Homo sapiens), -2.16 °C.
Consider `Cc1nnc2n1-c1sc3c(c1C(c1ccccc1Cl)=NC2)C[C@@H](C(=O)N1CCOCC1)C3`, for which the ΔTm in assay [1] was 0.58 °C; at Peregrin (Homo sapiens), -1.96 °C.
In the case of `COc1cc(C(=O)NC2CCN(C)CC2)ccc1Nc1ncc(C(F)(F)F)c(NCc2ccc(C)cc2N(C)S(C)(=O)=O)n1`, the values for the shift in melting temperature (ΔTm) (in assay [1]; at Peregrin (Homo sapiens)) were 2.55 °C and -1.4 °C, respectively.
For `CC1CCN(c2ccnc(NCc3cn(C)cn3)n2)CC1`, the ΔTm is 0.69 °C in assay [1] and -2.32 °C at Peregrin (Homo sapiens).
With `O=C(CCCN1CCC(O)(c2ccc(Cl)cc2)CC1)c1ccc(F)cc1`, the thermal shift (ΔTm) was 0.59 °C in assay [1] and -1.6 °C on Peregrin (Homo sapiens).
The corresponding values for `C1=Cc2ccccc2C(=C2CCN(CCCCc3nnn[nH]3)CC2)c2ccccc21` are 0.36 °C and -1.48 °C.
`O=C(N[C@H](Cc1ccccc1)C(=O)O)c1cccc(OCc2cccnc2)c1`: the ΔTm in assay [1] was 0.53 °C; at Peregrin (Homo sapiens), -2.18 °C.
For the molecule `CN(c1ccc(C(F)(F)F)cc1)S(=O)(=O)c1ccc(C(=O)Nc2nc(-c3ccccn3)cs2)cc1`, the shift in melting temperature (ΔTm) in assay [1] was found to be 8.54 °C; at Peregrin (Homo sapiens), 7.54 °C.
Regarding `COc1ccc(CC[C@@H](OC(=O)[C@@H]2CCCCN2C(=O)[C@H](c2cc(OC)c(OC)c(OC)c2)C2CCCCC2)c2cccc(OCCN3CCOCC3)c2)cc1OC`, the ΔTm in assay [1] was -3.93 °C; at Peregrin (Homo sapiens) it was -5.77 °C.
The corresponding values for `Cn1cc(-c2ccc(N(C(=O)NCc3ccccc3)[C@H]3CC[C@H](Nc4ccc(C#N)cn4)CC3)cc2)ccc1=O` are 1.75 °C and -0.32 °C.
The corresponding values for `CC[C@H]1[C@@H](O)[C@@H]2[C@H](CC[C@]3(C)[C@@H]([C@H](C)CCC(=O)O)CC[C@@H]23)[C@@]2(C)CC[C@@H](O)C[C@@H]12` are 0 °C and -1.33 °C.
Take `CC(C)(C)OC(=O)CN1C(=O)c2c(OCC(=O)O)cccc2Oc2ccc(C(F)(F)F)cc21`: the figures for the ΔTm (in assay [1]; on Peregrin (Homo sapiens)) were 0.75 °C and -3.16 °C, respectively.
Turning to `O=C(O)CCCCCC[C@@H]1C(=O)NC(=O)N1CCC(O)C1CCCCC1` (some centres not stated), the ΔTm in assay [1] is 0.47 °C; on Peregrin (Homo sapiens), -2.88 °C.
For the molecule `N#Cc1c(SCc2csc(-c3ccc(Cl)cc3)n2)nc(N2CCCC2)c(C#N)c1-c1ccc(OCCO)cc1`, the ΔTm in assay [1] is 1.06 °C; at Peregrin (Homo sapiens) it was -3.79 °C.
The corresponding values for `CC(C)S(=O)(=O)c1ccccc1Nc1nc(N[C@@H]2CCCN(CCCCCCCNC(=O)COc3cccc4c3C(=O)N(C3CCC(=O)N(C)C3=O)C4=O)C2)ncc1Cl` (some centres not stated) are 8.15 °C and -2.55 °C.
Take `CC(C)(O)[C@H](F)CN1Cc2cc(NC(=O)c3cnn4cccnc34)c(N3CCOCC3)cc2C1=O`: the thermal shift (ΔTm) in assay [1] is 2.76 °C; at Peregrin (Homo sapiens), -1.78 °C.
The corresponding values for `Cc1cn([C@H](C)CC#N)c(=O)c2cc(Cn3nc(C(F)F)cc3Cl)nn12` are 0.78 °C and -1.09 °C.
Take `CS(=O)(=O)c1cc(C2(NC(=O)c3cncc4c3cnn4-c3ccc(F)cc3)CC2)ccn1`: the values for the ΔTm (in assay [1]; on Peregrin (Homo sapiens)) were 0.85 °C and -2.04 °C, respectively.
With `CN(C)CCCN1c2ccccc2Sc2ccc(Cl)cc21`, the ΔTm is 0.65 °C in assay [1] and -1.01 °C at Peregrin (Homo sapiens).
The corresponding values for `O=C(O)c1cccc(C2=C(c3cc(Cl)ccc3OCc3ccc(F)cc3F)CCC2)n1` are -0.33 °C and -5.87 °C.
The corresponding values for `COc1cc2nc(-c3cc(F)ccc3O)nc(N[C@@H]3CNC[C@H]3C(C)(C)O)c2cc1OC` are 1.8 °C and 0.34 °C.
The corresponding values for `O=C(CCCCCCc1ccccc1)c1ncc(-c2ccccn2)o1` are 0.46 °C and -3.08 °C.
`COCCNC1CCC(Nc2cc(-c3csc(NCC4(C#N)CCOCC4)n3)c(Cl)cn2)CC1` (configuration not stated): the values for the ΔTm (in assay [1]; on Peregrin (Homo sapiens)) were 0.74 °C and 0.03 °C, respectively.
With `CC(C)C[C@H](NC(=O)[C@@H](O)[C@H](N)Cc1ccccc1)C(=O)O`, the ΔTm was 0.78 °C in assay [1] and -2.93 °C at Peregrin (Homo sapiens).
On to `Cn1c(C2(NC(=O)c3ccc(NCC4CCCCC4)nc3)CCC2)nc2ccc(/C=C/C(=O)O)cc21`, for which the values for the ΔTm (in assay [1]; at Peregrin (Homo sapiens)) were 1.03 °C and -2.12 °C, respectively.
As to `O=C(O)CCCN1CCC[C@H]1COc1ccc(Oc2ccc(Cl)cc2)cc1`, the ΔTm in assay [1] was 0.41 °C; at Peregrin (Homo sapiens), -3.24 °C.
For `C[S+]([O-])c1ccc(-c2nc(-c3cccc(I)c3)c(-c3ccncc3)[nH]2)cc1` (configuration not stated), the ΔTm was -1.51 °C in assay [1] and -1.44 °C on Peregrin (Homo sapiens).
For `Cc1csc(S(=O)(=O)N(CC(C)C)c2cc3c(cc2OCc2ccc(C(=O)O)cc2)CCC3)n1`, the ΔTm is 0.12 °C in assay [1] and -3.17 °C on Peregrin (Homo sapiens).
For `CCS(=O)(=O)Nc1cccc(Oc2cncc(Nc3ccc(I)cc3F)c2C(N)=O)c1`, the figures for the ΔTm (in assay [1]; on Peregrin (Homo sapiens)) were 1.17 °C and -2.79 °C, respectively.
Take `COc1ccccc1N1CCN(c2ncnc3c2cnn3-c2ccccc2)CC1`: the ΔTm in assay [1] is 0.51 °C; on Peregrin (Homo sapiens), -1.23 °C.
Regarding `FC(F)(F)c1ccc(CNc2ccc(Cc3c[nH]c4ncc(Cl)cc34)cn2)cn1`, the ΔTm is 3.63 °C in assay [1] and -0.43 °C on Peregrin (Homo sapiens).
